{"source": "patent US7608623B2", "about": "“Hydroxyamidine and hydroxyguanidine compounds as urokinase inhibitors” (Wilex AG, priority 2003, dated 2009)", "key": {"[1]": {"assay": "Solubility of WX-671 hydrogen sulfate in water", "assay_type": "physicochemical", "settings": "25° C., calculated for the base", "description": "The purity was ≧98% (area % after HPLC)."}, "[2]": {"assay": "Stability of WX-671 hydrogen sulfate (stirring in water/acetone; storage as solid)", "assay_type": "physicochemical", "procedure": "5 g of hydrogen sulfate were stirred in 25 ml of water/acetone (80/20) for 7 days, filtered and dried at room temperature for 60 h. […] After stirring, no increase in the content of organic contaminations was found (determination by HPLC).\nAfter storage as a solid substance at 90° C. for 1 week, <1.5% organic contaminations were found (determination by HPLC)."}, "BN-472 breast cancer": {"system": "BN-472 breast cancer", "assay": "Breast cancer model BN-472, tumor growth and metastasis in the rat (WX-683)", "assay_type": "in vivo", "settings": "BN-472 rat", "description": "BN-472 breast cancer fragments of approximately 20 mm in diameter were taken from a female donor animal. The tumor was excised, separated from the adhering connective tissue, rinsed with saline, and resuspended in HAM-F12 cell culture medium (Invitrogen BV, Breda, Netherlands), supplemented with 10% fetal calf serum (Hi Clone, Greiner BV, Alphen a/d Rijn, Netherlands). The tumor cortex was sliced into cubes of about 2 mm side length and implanted orthotopically under the mammary fat pad of the 4th right nipple of 7 to 9-weeks old recipient female BN rats. Of the grafted tumors, over 95% became palpable within 3 days, and metastasis to the lungs were detected within 2 to 4 weeks.\nShortly before starting the WX-683 treatment on day 3 after tumor transplantation, all rats were individually weighed and the size of the individual tumor measured as the product of the two largest perpendicular diameters. They were then assorted into groups consisting of 18 rats. The rats were pre-selected such that all treatment groups had similar average body weights and tumor size distributions at the start of the treatment. Control rats received 800 μl vehicle (0.01 N HCl) p.o. WX-683 was dissolved in vehicle at the appropriate concentrations and administered in a volume of 800 μl at dosages of 0.3 and 3 mg/kg by oral gavage once a day. The duration of WX-683 treatment ranged from 24 to 25 days, depending whether the tumor size exceeded the maximum tolerable burden. At the end of the treatment period, the rats were sacrificed, their tumors harvested, separated from the adhering connective tissue and the total tumor weight of every rat was determined. To assess the number of lung metastases, the lungs were fixed in Bouin's solution for at least 24 h. Subsequently the number of lung metastases were determined by counting the yellowish-white macroscopic foci on the lung surface (FIG. 7). This study was approved by the Independent Institutional Animal Care and Use Committee (DEC-Consult), Rotterdam, Netherlands, permit no: Erasmus MC OZP 136-03-01, issued on 01.03.2003."}, "[3]": {"system": "CA20948 rat pancreatic tumor", "assay": "Pancreatic adenocarcinoma model CA20948", "settings": "WX-UK1 0.3 mg/kg intraperitoneal, 3 weeks, vehicle 30.7%"}, "BN472 breast cancer": {"system": "BN472 breast cancer", "assay": "Breast cancer model BN472, tumor growth and metastasizing in rats (WX-671)", "settings": "WX-UK1 i.p. 1 mg/kg daily, 30 days, BN472 rat mammary tumor model"}}, "data": [{"compound": "CCOC(=O)N1CCN(C(=O)[C@H](Cc2cccc(/C(N)=N\\O)c2)NS(=O)(=O)c2c(C(C)C)cc(C(C)C)cc2C(C)C)CC1.O=S(=O)(O)O", "note": "[WX-671 hydrogen sulfate]", "values": [{"measurement": "solubility in water", "setting": "[1]", "result": 1172.5, "unit": "µg/mL"}, {"measurement": "increase in content of organic contaminations (HPLC)", "setting": "[2]; after stirring in water/acetone (80/20) for 7 days", "result": "no increase"}, {"measurement": "stability of the salt to dissociation (stoichiometry)", "setting": "[2]; stirred in water/acetone (80/20) for 7 days", "result": "stable to dissociation"}, {"measurement": "organic contaminations (HPLC)", "setting": "[2]; storage as solid at 90° C. for 1 week", "result": "< 1.5", "unit": "%"}]}, {"compound": "CCOC(=O)N1CCN(C(=O)[C@H](Cc2cccc(NC(=N)NO)c2)NS(=O)(=O)c2c(C(C)C)cc(C(C)C)cc2C(C)C)CC1", "note": "[WX-683, N-α-(2,4,6-triisopropylphenylsulfonyl)-3-hydroxyguanidino-(L)-phenylalanine-4-ethoxycarbonylpiperazide]", "values": [{"measurement": "reduction of median number of lung metastases", "setting": "BN-472 breast cancer; oral 0.3 mg/kg/day", "result": 18, "unit": "%"}, {"measurement": "reduction of median number of lung metastases", "setting": "BN-472 breast cancer; oral 3 mg/kg/day", "result": 54, "unit": "%"}, {"measurement": "reduction of median primary tumor weight", "setting": "BN-472 breast cancer; oral, highest dosage used (3 mg/kg/day)", "result": 38, "unit": "%"}]}, {"compound": "CCOC(=O)N1CCN(C(=O)[C@H](Cc2cccc(C(=N)N)c2)NS(=O)(=O)c2c(C(C)C)cc(C(C)C)cc2C(C)C)CC1.Cl", "note": "[WX-UK1]", "values": [{"measurement": "percentage large mets (>2 mm liver lesions of total liver lesions)", "setting": "[3]", "result": 13.4, "unit": "%"}, {"measurement": "reduction of average tumor weights at the end of the treatment compared to the control", "setting": "BN472 breast cancer", "result": "approx. 5%"}]}]}
